# Where “and” joins values, the source holds several entries; their conditions need not be identical. Identical values can stand only once.
# What was measured:
# [1] = tested on: A549 cells; assay: PD assay (Assay 2): inhibition of nuclear symmetric Arginine dimethylation (SYM10 immunohistochemistry) in A549 cells; assay type: cell-based; settings: individual measurements shown; for pIC50 Assay 2: PD assay in A549 cells; for IC50: Homo sapiens, A549, PD assay in A549 cells, read-out: pIC50 Assay 2 (converted)
# Procedure, shortened: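 A549 cells dosed with a nine-point series (0.2% DMSO) for 48 h at 37° C, then fixed and immunostained with SYM10 anti-symmetric-dimethylarginine antibody, plus Hoechst and CellMask counterstains for high-content imaging. Nuclear signal normalized between DMSO and 10 μM reference-compound controls to derive IC50/pIC50.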
# [2] = target: T1, PRMT5-MEP50 enzyme (Homo sapiens, UniProt O14744); assay: In vitro assay (Assay 1): PRMT5-MEP50 high throughput mass spectrometer assay, inhibition of SAH formation; assay type: biochemical; settings: individual measurements shown; for IC50: read-out: pIC50 Assay 1 (converted)
# T1 construct: One virus expresses full length human PRMT5 with Flag-tag at N-terminus
# T1 sequence (O14744 whole entry): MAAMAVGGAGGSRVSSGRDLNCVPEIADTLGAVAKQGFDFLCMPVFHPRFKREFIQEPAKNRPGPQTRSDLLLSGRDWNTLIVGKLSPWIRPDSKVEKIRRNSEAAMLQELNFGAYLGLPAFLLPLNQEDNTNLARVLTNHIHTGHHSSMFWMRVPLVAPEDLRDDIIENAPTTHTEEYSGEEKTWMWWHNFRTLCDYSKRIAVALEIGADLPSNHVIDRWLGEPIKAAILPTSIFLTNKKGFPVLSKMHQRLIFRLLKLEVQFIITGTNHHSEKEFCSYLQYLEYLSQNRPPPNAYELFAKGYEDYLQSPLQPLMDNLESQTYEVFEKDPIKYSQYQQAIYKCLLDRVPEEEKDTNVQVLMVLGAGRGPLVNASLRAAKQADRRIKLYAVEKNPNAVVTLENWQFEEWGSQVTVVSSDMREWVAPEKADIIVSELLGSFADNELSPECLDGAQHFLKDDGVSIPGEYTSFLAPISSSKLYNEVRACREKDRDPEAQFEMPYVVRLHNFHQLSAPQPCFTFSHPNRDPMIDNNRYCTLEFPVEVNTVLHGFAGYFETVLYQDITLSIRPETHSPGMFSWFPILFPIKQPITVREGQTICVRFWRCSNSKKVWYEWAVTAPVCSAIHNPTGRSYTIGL
# T1 sequence (Q9BQA1 whole entry partner): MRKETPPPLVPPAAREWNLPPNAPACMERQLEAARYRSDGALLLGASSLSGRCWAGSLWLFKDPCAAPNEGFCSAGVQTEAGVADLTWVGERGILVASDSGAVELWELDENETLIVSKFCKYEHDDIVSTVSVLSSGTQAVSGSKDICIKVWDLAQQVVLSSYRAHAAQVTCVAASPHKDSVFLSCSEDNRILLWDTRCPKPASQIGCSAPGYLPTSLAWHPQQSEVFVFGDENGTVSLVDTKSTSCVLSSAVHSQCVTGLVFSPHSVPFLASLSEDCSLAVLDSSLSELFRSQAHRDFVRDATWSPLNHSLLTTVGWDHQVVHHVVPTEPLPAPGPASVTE
# Procedure, shortened: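 Flag-PRMT5/His-MEP50 full-length human complex (Sf9-expressed), 10 nM, with 1 μM SAM and 0.3 μM histone H2A in 20 mM Tris-HCl pH 8.5, 50 mM NaCl, 5 mM MgCl2, 1 mM DTT; 60 min at 30 °C, quenched with 1% formic acid. SAH quantified by RapidFire MS; IC50 from 11-point 1:2 series fitted to four-parameter Hill equation.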
# [3] = target: PRMT5 (Homo sapiens, UniProt O14744); settings: Chan-Penebre et al., Nat Chem Biol 2015; cited from earlier work
# Sequence of PRMT5 (O14744 whole entry, species assumed): as the sequence (O14744 whole entry) above
# Sequence of PRMT5 (Q9BQA1 whole entry partner, species assumed): as the sequence (Q9BQA1 whole entry partner) above
# [4] = tested on: MCL xenograft models; settings: multiple MCL xenograft models; Chan-Penebre et al., Nat Chem Biol 2015; cited from earlier work
Structure (SMILES),IC50 [2],IC50 [1] [nM],further results
Nc1ncnc2c1ccn2[C@@H]1C[C@H](CC2=CCCC23CCNCC3)[C@@H](O)[C@H]1O [Compound 166],1.86 nM and 1.58 nM and 0.631 nM,–,pIC50 Assay 2 [1]: 7.41 and 7.92 and 7.87
Nc1ncnc2c1ccn2[C@@H]1C[C@H](/C=C2\CCCC23CCNCC3)[C@@H](O)[C@H]1O [Compound 167],3.16 nM and 1.58 nM,30.2,pIC50 Assay 2 [1]: 7.68
CN1CCC2(CCCN2C[C@H]2O[C@@H](n3ccc4c(N)ncnc43)[C@H](O)[C@@H]2O)CC1 [Compound 168],26.3 nM and 17.4 nM and 8.51 nM,204,pIC50 Assay 2 [1]: ~6.64 and ~6.7
Nc1ncnc2c1ccn2[C@@H]1O[C@H](CN2CCCC23CCN(CCC(F)(F)F)CC3)[C@@H](O)[C@H]1O [Compound 169],275 nM,603,–
Nc1ncnc2c1ccn2[C@@H]1O[C@H](CN2CCCC23CCN(CCc2ccc(F)cc2)CC3)[C@@H](O)[C@H]1O [Compound 170],42.7 nM,~148,–
Nc1ncnc2c1ccn2[C@@H]1O[C@H](CN2CCCC23CCN(Cc2cccnc2)CC3)[C@@H](O)[C@H]1O [Compound 172],309 nM,~912,–
CN1CCC2(CCCN2C[C@H]2O[C@@H](n3cc(Br)c4c(N)ncnc43)[C@H](O)[C@@H]2O)CC1 [Compound 179],31.6 nM,95.5,–
CN1CCC2(CCCN2C[C@H]2O[C@@H](n3cc(I)c4c(N)ncnc43)[C@H](O)[C@@H]2O)CC1 [Compound 180],10.2 nM,269,–
CN1CCC2(CC1)CC(F)(F)CN2C[C@H]1O[C@@H](n2ccc3c(N)ncnc32)[C@H](O)[C@@H]1O [Compound 181],19.5 nM,66.1,–
Nc1ncnc2c1ccn2[C@@H]1O[C@H](CN2CC(F)(F)CC23CCN(CCC2CC2)CC3)[C@@H](O)[C@H]1O [Compound 185],25.1 nM,589,–
CN1CCC2(CCCN(C[C@H]3O[C@@H](n4ccc5c(N)ncnc54)[C@H](O)[C@@H]3O)C2)C1 (stereo partly shown) [Compound 186],13.5 nM,617,–
N#CCCN1CCC2(CCCN2C[C@H]2O[C@@H](n3ccc4c(N)ncnc43)[C@H](O)[C@@H]2O)CC1 [Compound 193],186 nM,468,–
COCCN1CCC2(CCCN2C[C@H]2O[C@@H](n3ccc4c(N)ncnc43)[C@H](O)[C@@H]2O)CC1 [Compound 194],427 nM,~5620,–
CNC(=O)CN1CCC2(CCCN2C[C@H]2O[C@@H](n3ccc4c(N)ncnc43)[C@H](O)[C@@H]2O)CC1 [Compound 197],6460 nM,> 10000,–
Nc1ncnc2c1ccn2[C@@H]1O[C@H](CN2CCCC23CCN(CC2OCCc4ccccc42)CC3)[C@@H](O)[C@H]1O (stereo partly shown) [Compound 201],457 nM,~10200,–
Nc1ncnc2c1ccn2[C@@H]1O[C@H](CN2CCCC23CCN(CC(F)(F)F)CC3)[C@@H](O)[C@H]1O [Compound 202],2000 nM,~4680,–
CN1CCC2(CCCN2C[C@H]2O[C@@H](n3ccc4c(NCc5ccc(F)cc5)ncnc43)[C@H](O)[C@@H]2O)CC1 [Compound 203],209 nM,661,–
CN1CCC2(CCC/C2=C\[C@H]2C[C@@H](n3ccc4c(N)ncnc43)[C@H](O)[C@@H]2O)CC1 [Compound 207],5.01 nM,52.5,–
CN1CCC2(CCCN2C[C@H]2O[C@@H](n3ccc4c(Cl)ncnc43)[C@H](O)[C@@H]2O)CC1 [Compound 208],75.9 nM,490,–
O=C(NC[C@H](O)CN1CCc2ccccc2C1)c1cc(NC2COC2)ncn1 [EPZ015666],–,–,potency as PRMT5 inhibitor [3]: sub-nanomolar potent; anti-tumour activity [4]: anti-tumour activity

# The next lines start with results.
IC50 [2],IC50 [1] [nM],Structure (SMILES),further results
1620 nM,~4070,Nc1ncnc2c1ccn2[C@@H]1O[C@H](CN2CCCC23CCN(Cc2ccc(F)cc2)CC3)[C@@H](O)[C@H]1O [Compound 171],–
347 nM,776,Nc1ncnc2c1ccn2[C@@H]1O[C@H](CN2CCCC23CCN(CCOc2ccc(F)cc2)CC3)[C@@H](O)[C@H]1O [Compound 173],–
501 nM,~2290,Nc1ncnc2c1ccn2[C@@H]1O[C@H](CN2CCCC23CCN(C2CC2)CC3)[C@@H](O)[C@H]1O [Compound 174],–
589 nM,1410,Nc1ncnc2c1ccn2[C@@H]1O[C@H](CN2CCCC23CCN(Cc2ccoc2)CC3)[C@@H](O)[C@H]1O [Compound 175],–
1120 nM,6030,Cc1nc(CN2CCC3(CCCN3C[C@H]3O[C@@H](n4ccc5c(N)ncnc54)[C@H](O)[C@@H]3O)CC2)cs1 [Compound 176],–
191 nM,457,Nc1ncnc2c1ccn2[C@@H]1O[C@H](CN2CCCC23CCN(Cc2nc4ccccc4[nH]2)CC3)[C@@H](O)[C@H]1O [Compound 177],–
51.3 nM,120,CN1CCC2(CCCN2C[C@H]2O[C@@H](n3cc(F)c4c(N)ncnc43)[C@H](O)[C@@H]2O)CC1 [Compound 178],–
15.5 nM,501,CCN1CCC2(CC1)CC(F)(F)CN2C[C@H]1O[C@@H](n2ccc3c(N)ncnc32)[C@H](O)[C@@H]1O [Compound 182],–
22.4 nM,~240,Nc1ncnc2c1ccn2[C@@H]1O[C@H](CN2CC(F)(F)CC23CCN(CCc2ccc(F)cc2)CC3)[C@@H](O)[C@H]1O [Compound 183],–
67.6 nM,~1480,CC(C)CCN1CCC2(CC1)CC(F)(F)CN2C[C@H]1O[C@@H](n2ccc3c(N)ncnc32)[C@H](O)[C@@H]1O [Compound 184],–
63.1 nM,1700,CN(C)CC[C@@H]1CCCN1C[C@H]1O[C@@H](n2ccc3c(N)ncnc32)[C@H](O)[C@@H]1O [Compound 187],–
372 nM,708,CN1CCC2(CC1)CC(F)(F)CN2C[C@H]1O[C@@H](n2ccc3c(Cl)ncnc32)[C@H](O)[C@@H]1O [Compound 188],–
–,> 10000,CN1CCC2(CCCN2C[C@H]2O[C@@H](n3cnc4cncnc43)[C@H](O)[C@@H]2O)CC1 [Compound 191],pIC50 Assay 1 [2]: 5.04
69.2 nM,83.2,N#CCN1CCC2(CCCN2C[C@H]2O[C@@H](n3ccc4c(N)ncnc43)[C@H](O)[C@@H]2O)CC1 [Compound 192],–
537 nM,> 10000,CNC(=O)CCN1CCC2(CCCN2C[C@H]2O[C@@H](n3ccc4c(N)ncnc43)[C@H](O)[C@@H]2O)CC1 [Compound 195],–
1150 nM,3240,Nc1ncnc2c1ccn2[C@@H]1O[C@H](CN2CCCC23CCN(CC(F)F)CC3)[C@@H](O)[C@H]1O [Compound 196],–
437 nM,~1100,Nc1ncnc2c1ccn2[C@@H]1O[C@H](CN2CCCC23CCN(C2COC2)CC3)[C@@H](O)[C@H]1O [Compound 198],–
891 nM,1860,Nc1ncnc2c1ccn2[C@@H]1O[C@H](CN2CCCC23CCN(Cc2cccnn2)CC3)[C@@H](O)[C@H]1O [Compound 199],–
4790 nM,> 10000,Nc1ncnc2c1ccn2[C@@H]1O[C@H](CN2CCCC23CCN(Cc2nccs2)CC3)[C@@H](O)[C@H]1O [Compound 200],–
372 nM,1380,CN1CCC2(CCCN2C[C@H]2O[C@@H](n3ccc4c(NCCc5ccc(F)cc5)ncnc43)[C@H](O)[C@@H]2O)CC1 [Compound 204],–
1620 nM,7080,CCNc1ncnc2c1ccn2[C@@H]1O[C@H](CN2CCCC23CCN(C)CC3)[C@@H](O)[C@H]1O [Compound 205],–
5.13 nM,64.6,CN1CCC2(CCC=C2C[C@H]2C[C@@H](n3ccc4c(N)ncnc43)[C@H](O)[C@@H]2O)CC1 [Compound 206],–
4680 nM and 4270 nM and 3470 nM,> 10000,O[C@@H]1[C@H](O)[C@@H](CN2CCCC23CCNCC3)O[C@H]1n1cnc2c(NC3CC3)ncnc21 [Compound 270],–
